Key:
[1] = biological target: T1, NS5B from the BK strain (genotype 1b) (Hepatitis C virus genotype 1b, UniProt P26663); test: Hepatitis C polymerase inhibition, NS5B BK strain, 33P-GTP filter assay; assay type: biochemical; settings: Table 1B; NS5B BK strain; read-out: BK IC50
T1 construct: NS5B from the BK strain (genotype 1b) is expressed in E. coli as a protein in which the 21 C-terminal amino acids are replaced; made in house; host or cells: E. coli
Summary of the method: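 E. coli-expressed NS5B (BK, genotype 1b) with the 21 C-terminal residues replaced by a linker-His6 tag was preincubated with compound for 15 min at room temperature. It then extended a hairpin-primed heteropolymeric RNA (~3 nM, ~760 nt product) with α-[33P]-GTP for 2 h at 22–25° C. The reaction was stopped with EDTA, and incorporated label was counted on filters.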

[2] = biological target: BB7 (RNA-dependent RNA polymerase hepatitis C virus protein sequence derived from HCV replicon) (Hepatitis C virus genotype 1b, UniProt Q9WMX2); test: Hepatitis C polymerase inhibition, BB7 sequence; assay type: biochemical; settings: Table 1B
Sequence of BB7 (RNA-dependent RNA polymerase hepatitis C virus protein sequence derived from HCV replicon) (Q9WMX2 2420-3010): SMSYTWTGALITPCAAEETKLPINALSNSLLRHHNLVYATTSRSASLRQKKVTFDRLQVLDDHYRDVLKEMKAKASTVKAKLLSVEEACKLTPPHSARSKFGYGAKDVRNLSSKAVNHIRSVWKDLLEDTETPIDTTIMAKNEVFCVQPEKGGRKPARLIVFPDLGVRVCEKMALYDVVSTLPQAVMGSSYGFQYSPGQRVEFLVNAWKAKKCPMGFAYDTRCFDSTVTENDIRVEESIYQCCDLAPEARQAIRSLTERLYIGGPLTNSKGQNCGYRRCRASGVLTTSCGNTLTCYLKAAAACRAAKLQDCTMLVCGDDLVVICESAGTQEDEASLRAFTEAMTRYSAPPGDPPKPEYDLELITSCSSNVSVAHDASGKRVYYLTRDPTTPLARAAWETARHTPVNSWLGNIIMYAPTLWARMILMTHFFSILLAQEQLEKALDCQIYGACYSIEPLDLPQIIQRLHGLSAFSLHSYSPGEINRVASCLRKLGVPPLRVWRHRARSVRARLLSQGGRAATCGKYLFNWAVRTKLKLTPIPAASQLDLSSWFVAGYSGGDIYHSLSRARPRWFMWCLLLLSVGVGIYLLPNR

T1 sequence (P26663 2420-2989): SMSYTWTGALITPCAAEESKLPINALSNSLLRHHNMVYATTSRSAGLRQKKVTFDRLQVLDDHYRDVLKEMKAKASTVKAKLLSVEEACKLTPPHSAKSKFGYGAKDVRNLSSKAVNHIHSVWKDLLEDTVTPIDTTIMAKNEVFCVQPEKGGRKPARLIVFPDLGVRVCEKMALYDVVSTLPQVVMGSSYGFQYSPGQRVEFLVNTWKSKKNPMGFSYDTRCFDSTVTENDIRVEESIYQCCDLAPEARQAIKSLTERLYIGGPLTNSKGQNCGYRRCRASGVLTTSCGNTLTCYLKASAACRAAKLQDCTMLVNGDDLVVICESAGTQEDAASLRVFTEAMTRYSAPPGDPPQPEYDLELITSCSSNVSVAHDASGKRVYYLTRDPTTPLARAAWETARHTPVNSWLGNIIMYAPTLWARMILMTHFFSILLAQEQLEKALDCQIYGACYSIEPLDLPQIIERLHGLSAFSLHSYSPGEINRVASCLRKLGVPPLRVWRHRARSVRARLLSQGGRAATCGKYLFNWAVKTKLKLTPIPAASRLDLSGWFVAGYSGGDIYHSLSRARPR

| Compound | IC50 [1] | IC50 [2] |
| --- | --- | --- |
| CCCC1(CC(=O)O)OCCc2c1[nH]c1c(C)c(C(=O)O)cc(C#N)c21 (centres unmarked) [Example 353, 1-carboxymethyl-5-cyano-8-methyl-1-propyl-1,3,4,9 tetrahydro-pyrano[3,4-b]indole-7-carboxylic acid] | 2000 nM | 810 nM |
| CCCCC1(CC(=O)O)OCCc2c1[nH]c1c(CC)ccc(C#N)c21 (centres unmarked) [Example 296, (1-butyl-5-cyano-8-ethyl-1,3,4,9-tetrahydropyrano[3,4-b]indol-1-yl)acetic acid] | 7200 nM | 6300 nM |
| CC[C@H](C)[C@]1(CC(=O)O)OCCc2c1[nH]c1c(C)cc(F)c(C#N)c21 [Example 320, (1S,10S)-[5-cyano-6-fluoro-8-methyl-1-(1-methylpropyl)-1,3,4,9tetrahydropyrano[3,4-b]indol-1-yl]acetic acid] | 2900 nM | 6000 nM |
| CCC[C@]1(CC(=O)O)OCCc2c1[nH]c1c(Cl)ccc(C#N)c21 [Example 322, (1R)-(8-chloro-5-cyano-1-propyl-1,3,4,9-tetrahydropyrano[3,4-b]indol-1-yl)acetic acid] | 40 nM | 160 nM |
| CCCC1(CC(=O)O)OCCc2c1[nH]c1c(C(F)(F)F)ccc(C(F)(F)F)c21 (centres unmarked) [Example 271, [5,8-bis(trifluoromethyl)-1-propyl-1,3,4,9-tetrahydropyrano[3,4-b]indol-1-yl]acetic acid] | 2700 nM | 3500 nM |
| CC[C@H](C)[C@@]1(CC(=O)O)OCCc2c1[nH]c1c(C)ccc(C#N)c21 [Example 292, (1R,10S)-[5-cyano-8-methyl-1-(1-methylpropyl)-1,3,4,9-tetrahydropyrano[3,4-b]indol-1-yl]acetic acid] | 130 nM | 260 nM |
| CC[C@H](C)[C@]1(CC(=O)O)OCCc2c1[nH]c1c(F)ccc(C#N)c21 [Example 316, (1S,10S)-[5-cyano-8-fluoro-1-(1-methylpropyl)-1,3,4,9-tetrahydropyrano[3,4-b]indol-1-yl]acetic acid] | > 30000 nM | > 30000 nM |
| CCCC1(C(=O)O)OCCc2c1[nH]c1c(Cl)ccc(C(F)(F)F)c21 (centres unmarked) [Example 331, (8-chloro-5-trifluoromethyl-1-propyl-1,3,4,9-tetrahydropyrano[3,4-b]indol-1-yl)carboxylic acid] | 500 nM | 2500 nM |
| O=C(O)CC1(CC2CCCC2)OCCc2c1[nH]c1c(Cl)ccc(Cl)c21 (centres unmarked) [Example 258, (5,8-dichloro-1-cyclopentylmethyl-1,3,4,9-tetrahydropyrano[3,4-b]indol-1-yl)acetic acid] | 9400 nM | 14000 nM |
| CC[C@@H](C)[C@@]1(CC(=O)O)OCCc2c1[nH]c1c(C)ccc(C#N)c21 (racemic) [Example 290, (1R*,10R*)-[5-cyano-8-methyl-1-(1-methylpropyl)-1,3,4,9-tetrahydropyrano[3,4-b]indol-1-yl]acetic acid] | 3200 nM | 4900 nM |
| Cc1ccc(C#N)c2c3c([nH]c12)C(CC(=O)O)(CC1CCCC1)OCC3 (centres unmarked) [Example 288, (5-cyano-1-cyclopentylmethyl-8-methyl-1,3,4,9-tetrahydropyrano[3,4-b]indol-1-yl)acetic acid] | 22000 nM | 18000 nM |
| CCCC1(C(=O)O)OCCc2c1[nH]c1c(C)cc(F)c(C#N)c21 (centres unmarked) [Example 339, (5-cyano-6-fluoro-8-methyl-1-propyl-1,3,4,9-tetrahydropyrano[3,4-b]indol-1-yl)carboxylic acid] | 490 nM | 2800 nM |
| CCCC1(CC(=O)O)OCCc2c1[nH]c1c(C)c(OCc3cccc(F)c3)cc(C#N)c21 (centres unmarked) [Example 367, [5-cyano-7-(3-fluoro-benzyloxy)-8-methyl-1-propyl-1,3,4,9-tetrahydro-pyrano[3,4-b]indol-1-yl]acetic acid] | 80 nM | 90 nM |
| CCCC1(CC(=O)O)OCCc2c1[nH]c1c(C)ccc(Cl)c21 (centres unmarked) [Example 260, (5-chloro-8-methyl-1-propyl-1,3,4,9-tetrahydropyrano[3,4-b]indol-1-yl)acetic acid] | 400 nM | 1200 nM |
| COCCC1(CC(=O)O)OCCc2c1[nH]c1ccc(Cl)c(Cl)c21 (centres unmarked) [Example 238, [5,6-dichloro-1-(2-methoxyethyl)-1,3,4,9-tetrahydropyrano[3,4-b]indol-1-yl]acetic acid] | 19000 nM | > 30000 nM |
| Cc1ccc(C#N)c2c3c([nH]c12)C(CC(=O)O)(C1CCC1)OCC3 (centres unmarked) [Example 284, (5-cyano-1-cyclobutyl-8-methyl-1,3,4,9-tetrahydropyrano[3,4-b]indol-1-yl)acetic acid] | 1000 nM | 2300 nM |
| COCCC1(CC(=O)O)OCCc2c1[nH]c1c(Cl)ccc(C(F)(F)F)c21 (centres unmarked) [Example 265, [8-chloro-1-(2-methoxyethyl)-5-trifluoromethyl-1,3,4,9-tetrahydropyrano[3,4-b]indol-1-yl]acetic acid] | 20000 nM | 22000 nM |

| Compound | IC50 [1] | IC50 [2] |
| --- | --- | --- |
| Cc1cc(F)c(C#N)c2c3c([nH]c12)C(CC(=O)O)(C1CCC1)OCC3 (centres unmarked) [Example 317, (5-cyano-1-cyclobutyl-6-fluoro-8-methyl-1,3,4,9-tetrahydropyrano[3,4-b]indol-1-yl)acetic acid] | 600 nM | 900 nM |
| CCCC1(CC(=O)O)OCCc2c1[nH]c1c(C)c(OCCCF)cc(C#N)c21 (centres unmarked) [Example 370, [5-cyano-7-(3-fluoro-propoxy)-8-methyl-1-propyl-1,3,4,9-tetrahydro-pyrano[3,4-b]indol-1-yl]acetic acid] | 40 nM | 30 nM |
| CCC[C@@]1(C(=O)O)OCCc2c1[nH]c1c(F)ccc(C#N)c21 [Example 343, (1R)-(5-cyano-8-fluoro-1-propyl-1,3,4,9-tetrahydropyrano[3,4-b]-indol 1-yl)carboxylic acid] | > 30000 nM | > 30000 nM |
| O=C(O)CC1(C2CCCC2)OCCc2c1[nH]c1c(F)ccc(C(F)(F)F)c21 (centres unmarked) [Example 270, (1-cyclopentyl-8-fluoro-5-trifluoromethyl-1,3,4,9-tetrahydropyrano[3,4-b]indol-1-yl)acetic acid] | 20000 nM | 17000 nM |
| O=C(O)CC1(C2CC2)OCCc2c1[nH]c1c(Cl)ccc(Cl)c21 (centres unmarked) [Example 252, (5,8-dichloro-1-cyclopropyl-1,3,4,9-tetrahydropyrano[3,4-b]indol-1-yl)acetic acid] | 7300 nM | 19000 nM |
| O=C(O)CC1(C2CCC2)OCCc2c1[nH]c1c(Cl)ccc(Cl)c21 (centres unmarked) [Example 253, (5,8-dichloro-1-cyclobutyl-1,3,4,9-tetrahydropyrano[3,4-b]indol-1-yl)acetic acid] | 350 nM | 700 nM |
| CCCC1(C(=O)O)OCCc2c1[nH]c1c(C)ccc(Cl)c21 (centres unmarked) [Example 330, (5-chloro-8-methyl-1-propyl-1,3,4,9-tetrahydropyrano[3,4-b]indol-1-yl)carboxylic acid] | 1600 nM | 8400 nM |
| O=C(O)CC1(C2CCC2)OCCc2c1[nH]c1c(Cl)ccc(C(F)(F)F)c21 (centres unmarked) [Example 267, (8-chloro-1-cyclobutyl-5-trifluoromethyl-1,3,4,9-tetrahydropyrano[3,4-b]indol-1-yl)acetic acid] | 660 nM | 2300 nM |
| COCC1(CC(=O)O)OCCc2c1[nH]c1c(C)ccc(C#N)c21 (centres unmarked) [Example 281, (5-cyano-1-methoxymethyl-8-methyl-1,3,4,9-tetrahydropyrano[3,4-b]indol-1-yl)acetic acid] | > 30000 nM | > 30000 nM |
| CC[C@H](C)C1(CC(=O)O)OCCc2c1[nH]c1c(Cl)ccc(C#N)c21 (mixture of isomers) [Example 324] | 200 nM | 350 nM |
| Cc1ccc([N+](=O)[O-])c2c3c([nH]c12)C(CC(=O)O)(C1CCC1)OCC3 (centres unmarked) [Example 299, (1-cyclobutyl-8-methyl-5-nitro-1,3,4,9-tetrahydropyrano[3,4-b]indol-1-yl]acetic acid] | 500 nM | 900 nM |
| [5-cyano-1-(1-ethylethyl)-8-fluoro-1,3,4,9-tetrahydropyrano[3,4-b]indol-1-yl]acetic acid [Example 311] | > 30000 nM | > 30000 nM |
| C=CCCC1(CC(=O)O)OCCc2c1[nH]c1c(Cl)ccc(Cl)c21 (centres unmarked) [Example 251, [5,8-dichloro-1-(3-butenyl)-1,3,4,9-tetrahydropyrano[3,4-b]indol-1-yl]acetic acid] | 1700 nM | 3500 nM |
| CCCCC1(CC(=O)O)OCCc2c1[nH]c1c(C)ccc(C(F)(F)F)c21 (centres unmarked) [Example 273, (8-methyl-1-butyl-5-trifluoromethyl-1,3,4,9-tetrahydropyrano[3,4-b]indol-1-yl)acetic acid] | 1400 nM | 6500 nM |
| CCCC1(CC(=O)O)OCCc2c1[nH]c1c(C)c(C(=O)NC(C)C)cc(C#N)c21 (centres unmarked) [Example 355, (5-cyano-7-isopropylcarbamoyl-8-methyl-1-propyl-1,3,4,9-tetrahydro-pyrano[3,4-b]indol-1-yl)-acetic acid] | 5100 nM | 2900 nM |
| O=C(O)CC1(C2CCCC2)OCCc2c1[nH]c1c(Cl)ccc(Cl)c21 (centres unmarked) [Example 254, (5,8-dichloro-1-cyclopentyl-1,3,4,9-tetrahydropyrano[3,4-b]indol-1-yl)acetic acid] | 3300 nM | 5800 nM |
| CC[C@H](C)[C@]1(CC(=O)O)OCCc2c1[nH]c1c(Cl)ccc(C#N)c21 [Example 326, (1S,10S)-[8-Chloro-5-cyano-1-(1-methylpropyl)-1,3,4,9-tetrahydropyrano[3,4-b]indol-1-yl]acetic acid] | 6500 nM | 9400 nM |
